# Reference: BindingDB's records for doi:10.1021/jm00078a018 (Merck Research Laboratories, 1994)
# pIC50: −log10 of the molar value.
# Assay: Inhibition of binding of [125I]-CCK-8 to the cholecystokinin type B receptor
row,SMILES,pIC50
1,O=C(Nc1ccc(Cl)cc1)NC1N=C(c2ccccc2)c2ccccc2N(CC(=O)N2CCCC2)C1=O (stereo not given),8.80
2,CN1C(=O)[C@H](NC(=O)c2ccc(C(F)(F)F)cc2)N=C(c2ccccc2)c2ccccc21,5.48
3,O=C(Nc1ccc(Cl)cc1)N[C@H]1N=C(c2ccccc2)c2ccccc2N(CC(=O)N2CCCC2)C1=O,7.89
4,CN1C(=O)[C@H](NC(=O)Nc2cccc(I)c2)N=C(c2ccccc2)c2ccccc21,8.16
5,CN1C(=O)[C@@H](NC(=O)c2ccc(C(F)(F)F)cc2)N=C(c2ccccc2)c2ccccc21,5.34
6,COc1cccc(NC(=O)N[C@@H]2N=C(c3ccccc3)c3ccccc3N(C)C2=O)c1,8.66
7,CN1C(=O)[C@H](NC(=O)Nc2cccc(N)c2)N=C(c2ccccc2)c2ccccc21,7.48
8,CN1C(=O)[C@H](NC(=O)NCc2cccc(O)c2)N=C(c2ccccc2)c2ccccc21,7.72
9,CC(=O)Oc1cccc(NC(=O)N[C@@H]2N=C(c3ccccc3)c3ccccc3N(C)C2=O)c1,6.30
10,CN1C(=O)[C@H](NC(=O)Nc2cccc(O)c2)N=C(c2ccccc2)c2ccccc21,7.82
11,C=Cc1cccc(NC(=O)N[C@@H]2N=C(c3ccccc3)c3ccccc3N(C)C2=O)c1,7.46
12,CN1C(=O)[C@H](NC(=O)Nc2cccc(CN)c2)N=C(c2ccccc2)c2ccccc21,6.14
13,CN1C(=O)[C@H](NC(=O)Nc2ccccc2Cl)N=C(c2ccccc2)c2ccccc21,7.21
14,COc1cccc(NC(=O)N[C@H]2N=C(c3ccccc3)c3ccccc3N(C)C2=O)c1,6.52
15,Cc1cccc(NC(=O)N[C@@H]2N=C(c3ccccc3)c3ccccc3NC2=O)c1,7.40
16,CN1C(=O)[C@@H](NC(=O)Nc2ccccc2Cl)N=C(c2ccccc2)c2ccccc21,6.55
17,CN1C(=O)[C@H](NC(=O)Nc2cccc(Br)c2)N=C(c2ccccc2)c2ccccc21,8.42
18,CN1C(=O)[C@H](NC(=O)Nc2cccc(Cl)c2)N=C(c2ccccc2)c2ccccc21,8.12
19,O=C(Nc1ccc(Cl)cc1)N[C@@H]1N=C(c2ccccc2)c2ccccc2N(CC(=O)N2CCCC2)C1=O,8.85
20,"Cc1cccc(NC(=O)NC2N=C(c3ccccc3)c3ccccc3N(CC(=O)N3CC[N+](C)(C)CC3)C2=O)c1 (stereo not given) [1,1-Dimethyl-4-{2-[2-oxo-5-phenyl-3-(3-m-tolyl-ureido)-2,3-dihydro-benzo[e][1,4]diazepin-1-yl]-acetyl}-piperazin-1-ium; iodide]",7.24
21,"C[C@H](NC(=O)NC1N=C(c2ccccc2)c2ccccc2N(C)C1=O)c1ccccc1 (stereo not given in full) [1-(1-Methyl-2-oxo-5-phenyl-2,3-dihydro-1H-benzo[e][1,4]diazepin-3-yl)-3-(1-phenyl-ethyl)-urea]",4.96
22,"CN1C(=O)C(NC(=O)Nc2ccccc2[N+](=O)[O-])N=C(c2ccccc2)c2ccccc21 (stereo not given) [1-(1-Methyl-2-oxo-5-phenyl-2,3-dihydro-1H-benzo[e][1,4]diazepin-3-yl)-3-(2-nitro-phenyl)-urea]",5.92
23,"CN1C(=O)C(NC(=O)Nc2cccc([N+](=O)[O-])c2)N=C(c2ccccc2)c2ccccc21 (stereo not given) [1-(1-Methyl-2-oxo-5-phenyl-2,3-dihydro-1H-benzo[e][1,4]diazepin-3-yl)-3-(3-nitro-phenyl)-urea]",7.96
24,"CN1C(=O)C(NC(=O)Nc2cccc(C(F)(F)F)c2)N=C(c2ccccc2)c2ccccc21 (stereo not given) [1-(1-Methyl-2-oxo-5-phenyl-2,3-dihydro-1H-benzo[e][1,4]diazepin-3-yl)-3-(3-trifluoromethyl-phenyl)-urea]",8.42
25,"CN1C(=O)C(NC(=O)Nc2ccc([N+](=O)[O-])cc2)N=C(c2ccccc2)c2ccccc21 (stereo not given) [1-(1-Methyl-2-oxo-5-phenyl-2,3-dihydro-1H-benzo[e][1,4]diazepin-3-yl)-3-(4-nitro-phenyl)-urea]",7.34

row,SMILES,pIC50
1,"CN1C(=O)C(NC(=O)Nc2ccc(C(F)(F)F)cc2)N=C(c2ccccc2)c2ccccc21 (stereo not given) [1-(1-Methyl-2-oxo-5-phenyl-2,3-dihydro-1H-benzo[e][1,4]diazepin-3-yl)-3-(4-trifluoromethyl-phenyl)-urea]",8.24
2,"CN1C(=O)C(NC(=O)Nc2cccc3ccccc23)N=C(c2ccccc2)c2ccccc21 (stereo not given) [1-(1-Methyl-2-oxo-5-phenyl-2,3-dihydro-1H-benzo[e][1,4]diazepin-3-yl)-3-naphthalen-1-yl-urea]",7.10
3,"CN1C(=O)C(NC(=O)Nc2ccccc2)N=C(c2ccccc2)c2ccccc21 (stereo not given) [1-(1-Methyl-2-oxo-5-phenyl-2,3-dihydro-1H-benzo[e][1,4]diazepin-3-yl)-3-phenyl-urea]",7.49
4,"CN1C(=O)C(NC(=O)Nc2ccccn2)N=C(c2ccccc2)c2ccccc21 (stereo not given) [1-(1-Methyl-2-oxo-5-phenyl-2,3-dihydro-1H-benzo[e][1,4]diazepin-3-yl)-3-pyridin-2-yl-urea]",6.47
5,"CN1C(=O)C(NC(=O)Nc2cccnc2)N=C(c2ccccc2)c2ccccc21 (stereo not given) [1-(1-Methyl-2-oxo-5-phenyl-2,3-dihydro-1H-benzo[e][1,4]diazepin-3-yl)-3-pyridin-3-yl-urea]",6.51
6,"CN1C(=O)C(NC(=O)Nc2ccncc2)N=C(c2ccccc2)c2ccccc21 (stereo not given) [1-(1-Methyl-2-oxo-5-phenyl-2,3-dihydro-1H-benzo[e][1,4]diazepin-3-yl)-3-pyridin-4-yl-urea]",5.97
7,"CN1C(=O)C(NC(=O)Nc2ccc3ccccc3n2)N=C(c2ccccc2)c2ccccc21 (stereo not given) [1-(1-Methyl-2-oxo-5-phenyl-2,3-dihydro-1H-benzo[e][1,4]diazepin-3-yl)-3-quinolin-2-yl-urea]",7.59
8,"CN1C(=O)C(NC(=O)Nc2ccc3ncccc3c2)N=C(c2ccccc2)c2ccccc21 (stereo not given) [1-(1-Methyl-2-oxo-5-phenyl-2,3-dihydro-1H-benzo[e][1,4]diazepin-3-yl)-3-quinolin-6-yl-urea]",7.28
9,"Cc1cccc(NC(=O)NC2N=C(c3ccccc3)c3cnccc3N(C)C2=O)c1 (stereo not given) [1-(1-Methyl-2-oxo-5-phenyl-2,3-dihydro-1H-pyrido[4,3-e][1,4]diazepin-3-yl)-3-m-tolyl-urea]",6.20
10,"Cc1cccc(NC(=O)NC2N=C(c3cccnc3)c3ccccc3N(C)C2=O)c1 (stereo not given) [1-(1-Methyl-2-oxo-5-pyridin-3-yl-2,3-dihydro-1H-benzo[e][1,4]diazepin-3-yl)-3-m-tolyl-urea]",7.04
11,"Cc1cccc(NC(=O)NC2N=C(c3ccncc3)c3ccccc3N(C)C2=O)c1 (stereo not given) [1-(1-Methyl-2-oxo-5-pyridin-4-yl-2,3-dihydro-1H-benzo[e][1,4]diazepin-3-yl)-3-m-tolyl-urea]",7.28
12,"CN1C(=O)C(NC(=O)Nc2ccc(Cl)cc2Cl)N=C(c2ccccc2)c2ccccc21 (stereo not given) [1-(2,4-Dichloro-phenyl)-3-(1-methyl-2-oxo-5-phenyl-2,3-dihydro-1H-benzo[e][1,4]diazepin-3-yl)-urea]",6.66
13,"COc1ccccc1NC(=O)NC1N=C(c2ccccc2)c2ccccc2N(C)C1=O (stereo not given) [1-(2-Methoxy-phenyl)-3-(1-methyl-2-oxo-5-phenyl-2,3-dihydro-1H-benzo[e][1,4]diazepin-3-yl)-urea]",5.92
14,"COC(=O)[C@H]1CCCN1OC(=O)CN1C(=O)C(NC(=O)Nc2cccc(OC)c2)N=C(c2ccccc2)c2ccccc21 (stereo not given in full) [1-(2-{3-[3-(3-Methoxy-phenyl)-ureido]-2-oxo-5-phenyl-2,3-dihydro-benzo[e][1,4]diazepin-1-yl}-acetoxy)-pyrrolidine-2-carboxylic acid methyl ester]",8.01
15,"CN1C(=O)C(NC(=O)Nc2ccc(Cl)c(Cl)c2)N=C(c2ccccc2)c2ccccc21 (stereo not given) [1-(3,4-Dichloro-phenyl)-3-(1-methyl-2-oxo-5-phenyl-2,3-dihydro-1H-benzo[e][1,4]diazepin-3-yl)-urea]",7.17
16,"Cc1ccc(NC(=O)NC2N=C(c3ccccc3)c3ccccc3N(C)C2=O)cc1C (stereo not given) [1-(3,4-Dimethyl-phenyl)-3-(1-methyl-2-oxo-5-phenyl-2,3-dihydro-1H-benzo[e][1,4]diazepin-3-yl)-urea]",7.66
17,"COc1cc(NC(=O)NC2N=C(c3ccccc3)c3ccccc3N(C)C2=O)cc(OC)c1 (stereo not given) [1-(3,5-Dimethoxy-phenyl)-3-(1-methyl-2-oxo-5-phenyl-2,3-dihydro-1H-benzo[e][1,4]diazepin-3-yl)-urea]",5.64
18,"Cc1cc(C)cc(NC(=O)NC2N=C(c3ccccc3)c3ccccc3N(C)C2=O)c1 (stereo not given) [1-(3,5-Dimethyl-phenyl)-3-(1-methyl-2-oxo-5-phenyl-2,3-dihydro-1H-benzo[e][1,4]diazepin-3-yl)-urea]",6.57
19,"CC(=O)c1cccc(NC(=O)NC2N=C(c3ccccc3)c3ccccc3N(C)C2=O)c1 (stereo not given) [1-(3-Acetyl-phenyl)-3-(1-methyl-2-oxo-5-phenyl-2,3-dihydro-1H-benzo[e][1,4]diazepin-3-yl)-urea]",8.32
20,"CN1C(=O)C(NC(=O)Nc2cccc(Br)c2)N=C(c2ccccc2)c2ccccc21 (stereo not given) [1-(3-Bromo-phenyl)-3-(1-methyl-2-oxo-5-phenyl-2,3-dihydro-1H-benzo[e][1,4]diazepin-3-yl)-urea]",8.30
21,"CN1C(=O)C(NC(=O)Nc2cccc(Cl)c2)N=C(c2ccccc2)c2ccccc21 (stereo not given) [1-(3-Chloro-phenyl)-3-(1-methyl-2-oxo-5-phenyl-2,3-dihydro-1H-benzo[e][1,4]diazepin-3-yl)-urea]",8.01
22,"CN1C(=O)C(NC(=O)Nc2cccc(C#N)c2)N=C(c2ccccc2)c2ccccc21 (stereo not given) [1-(3-Cyano-phenyl)-3-(1-methyl-2-oxo-5-phenyl-2,3-dihydro-1H-benzo[e][1,4]diazepin-3-yl)-urea]",7.57
23,"C#Cc1cccc(NC(=O)NC2N=C(c3ccccc3)c3ccccc3N(C)C2=O)c1 (stereo not given) [1-(3-Ethynyl-phenyl)-3-(1-methyl-2-oxo-5-phenyl-2,3-dihydro-1H-benzo[e][1,4]diazepin-3-yl)-urea]",7.66
24,"CN1C(=O)C(NC(=O)Nc2cccc(F)c2)N=C(c2ccccc2)c2ccccc21 (stereo not given) [1-(3-Fluoro-phenyl)-3-(1-methyl-2-oxo-5-phenyl-2,3-dihydro-1H-benzo[e][1,4]diazepin-3-yl)-urea]",7.27
25,"COc1cccc(NC(=O)NC2N=C(c3ccccc3)c3ccccc3N(C)C2=O)c1 (stereo not given) [1-(3-Methoxy-phenyl)-3-(1-methyl-2-oxo-5-phenyl-2,3-dihydro-1H-benzo[e][1,4]diazepin-3-yl)-urea]",8.52
